Consider 24 compounds from patent publication US9987266B2, “Alkyl-amide-substituted pyridyl compounds useful as modulators of IL-12, IL-23 and/or IFNα responses” (BRISTOL-MYERS SQUIBB COMPANY, priority 2013, dated 2018).

Molecules are shown by their SMILES. pEC50, pIC50: −log10 of the molar value. Like-named read-outs stand apart in the source and are kept apart here.

Test [1] relates to Kit225 T cells with STAT-dependent luciferase reporter stimulated with human recombinant IFNα. Put plainly: Kit225 T cell assay, IFNα stimulated STAT-dependent luciferase reporter. The format is cell-based. The conditions noted are these: for pIC50: KIT225, 200 U/mL human recombinant IFNα, 5-6 hours, luciferase, read-out: IFNa Kit225 Reporter, LE (IC50); for IC50: Homo sapiens, KIT225, read-out: IFNa Kit225 Reporter, LE (IC50, μM). On the procedure:
(§1) Kit225 T cells with a stably-integrated STAT-dependent luciferase reporter were plated in RPMI (Gibco) containing 10% heat-inactivated FBS (Gibco) and 100 U/mL PenStrep (Gibco). The cells were then stimulated with either 20 ng/mL human recombinant IL-23 or 200 U/mL human recombinant IFNα (PBL InterferonSource) for 5-6 hours. Luciferase expression was measured using the STEADY-GLO® Luciferase Assay System (Promega) according to the manufacturer's instructions.
(In general: A reporter such as luciferase makes a cellular process visible.)

The subject of test [2] is Kit225 T cells with STAT-dependent luciferase reporter stimulated with human recombinant IL-23. Put plainly: Kit225 T cell assay, IL-23 stimulated STAT-dependent luciferase reporter. The format is cell-based. Conditions: for pIC50: KIT225, 20 ng/mL human recombinant IL-23, 5-6 hours, luciferase, read-out: IL-23 Kit225 Reporter, LE (IC50); for IC50: Homo sapiens, KIT225, read-out: IL-23 Kit225 Reporter, LE (IC50, μM). The protocol:
as §1

Test [3] deals with T1, recombinantly expressed His-tagged protein corresponding to amino acids 575-869 of human Tyk2 (Homo sapiens, UniProt P29597).
T1 construct: made in house
T1 sequence (P29597 with tags, fused parts or gaps): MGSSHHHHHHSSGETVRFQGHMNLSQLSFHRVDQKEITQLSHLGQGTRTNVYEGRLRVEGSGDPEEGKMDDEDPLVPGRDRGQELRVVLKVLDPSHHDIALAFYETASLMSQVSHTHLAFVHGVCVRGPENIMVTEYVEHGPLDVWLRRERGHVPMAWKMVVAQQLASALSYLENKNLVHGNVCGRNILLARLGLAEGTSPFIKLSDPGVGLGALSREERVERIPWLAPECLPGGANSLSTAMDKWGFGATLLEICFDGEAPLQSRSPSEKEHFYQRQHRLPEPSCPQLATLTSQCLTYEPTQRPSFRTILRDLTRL
Put plainly: Probe displacement assay (scintillation proximity, radiolabeled probe). The conditions noted are these: 2.5 nM Tyk2 (575-869), 40 nM [3H] probe, 30 minutes at room temperature. It is filed as binding. On the procedure: The preparation of radiolabeled probe, (R)—N-(1-(3-(8-methyl-5-(methylamino)-8H-imidazo[4,5-d]thiazolo[5,4-b]pyridin-2-yl)phenyl)ethyl)-2-([^3H]methylsulfonyl)benzamide, was performed as described below: […]

As a reminder, the pIC50 is −log10 of the IC50, conventionally taken in molar units. For orientation: pEC50 means −log10 of the EC50, conventionally taken in molar units. On to `CNC(=O)c1cnc(NC(=O)C2CC2)cc1Nc1cc(F)ccc1S(C)(=O)=O` [Example 20], for which the values for the pIC50 in test [1] and in test [2] were 5.92 and 5.84, respectively. Further, the pEC50 in test [3] is 6.82.

For the compound `CNC(=O)c1cnc(NC(=O)C2CC2(F)F)cc1Nc1ccccc1S(C)(=O)=O` (stereo not drawn) [Example 21], the pIC50 in test [1] was 5.73; in test [2], 5.65. The pEC50 in test [3] was 6.85.

As to `CNC(=O)c1cnc(NC(=O)C2CC2F)cc1Nc1ccccc1S(C)(=O)=O` (stereo not drawn) [Example 22], the negative logarithm of the IC50 (pIC50) was 5.91 in test [1] and 5.67 in test [2]. Besides, in test [3], the pEC50 is 7.10.

With `CNC(=O)c1cnc(NC(=O)COC)cc1Nc1ccc(F)c(F)c1OC` [Example 23], the pIC50 in test [1] was 5.41; in test [2] it was 4.90. Also, in test [3], the pEC50 is 5.99.

Take `CNC(=O)c1cnc(NC(C)=O)cc1Nc1ccc(F)c(F)c1OC` [Example 24]: the figures for the pIC50 in test [1] and in test [2] were 5.14 and 4.95, respectively. The pEC50 in test [3] is 6.38.

On to `CNC(=O)c1cnc(NC(=O)C2CC2)cc1Nc1ccc(F)c(F)c1OC` [Example 25], for which the pIC50 was 7.00 in test [1] and 6.64 in test [2]. In test [3], the pEC50 is 7.40.

For orientation: IC50 means the concentration needed to halve the response being measured. For `CNC(=O)c1cnc(NC(=O)Nc2ccccc2)cc1Nc1ccccc1S(C)(=O)=O` [Example 27], the results for the IC50 in test [1] and in test [2] were 3.06 µM and 3.17 µM, respectively. In test [3], the pEC50 was 6.54.

As to `CNC(=O)c1cnc(NC(=O)C2CC2)cc1Nc1cccc(-c2nnc(C)o2)c1OC` [Example 28], the pIC50 in test [1] is 7.40; in test [2], 7.15. Besides, the pEC50 in test [3] was 8.00.

In the case of `CNC(=O)c1cnc(NC(=O)C2CC2)cc1Nc1cccc(-c2nnc[nH]2)c1OC` [Example 29], the results for the pIC50 in test [1] and in test [2] were 7.52 and 7.70, respectively. The pEC50 in test [3] was 8.26.

For `CNC(=O)c1cnc(NC(=O)C2CC2)cc1Nc1cccc(-c2ncn(C)n2)c1OC` [Example 30], the pIC50 in test [1] was 8.00; in test [2], 7.52. For the same compound, the pEC50 in test [3] is 8.21.

As to `[2H]C([2H])([2H])NC(=O)c1cnc(NC(=O)C2CC2)cc1Nc1cccc(-c2ncn(C)n2)c1OC` [Example 31], the results for the pIC50 in test [1] and in test [2] were 8.00 and 8.32, respectively. In test [3], the pEC50 is 8.42.

For `CNC(=O)c1cnc(NC(=O)C2CC2)cc1Nc1cccc(-c2ccn(C)n2)c1OC` [Example 32], the figures for the pIC50 in test [1] and in test [2] were 8.15 and 8.14, respectively. In test [3], the pEC50 was 8.79.

Regarding `CNC(=O)c1cnc(NC(=O)C2CC2)cc1Nc1cccc(-c2ccnn2C)c1OC` [Example 33], the pIC50 in test [1] was 7.05; in test [2], 6.96. Moreover, the pEC50 in test [3] was 8.27.

Regarding `[2H]C([2H])([2H])NC(=O)c1cnc(NC(=O)C2CC2)cc1Nc1cccc(-c2ccn(C)n2)c1OC` [Example 34], the figures for the pIC50 in test [1] and in test [2] were 8.06 and 7.70, respectively. Also, in test [3], the negative logarithm of the EC50 (pEC50) is 8.19.

For `[2H]C([2H])([2H])NC(=O)c1cnc(NC(=O)C2CC2)cc1Nc1cccc(-c2ccnn2C)c1OC` [Example 35], the pIC50 in test [1] was 6.55; in test [2] it was 7.22. Moreover, in test [3], the negative logarithm of the EC50 (pEC50) was 7.40.

For the compound `[2H]C([2H])([2H])NC(=O)c1cnc(NC(=O)C2CC2)cc1Nc1cccc(-c2ccn(CC(F)F)n2)c1OC` [Example 36], the figures for the pIC50 in test [1] and in test [2] were 7.40 and 7.00, respectively. In addition, in test [3], the pEC50 was 8.38.

Take `[2H]C([2H])([2H])NC(=O)c1cnc(NC(=O)C2CC2)cc1Nc1cccc(-c2ccn(CC)n2)c1OC` [Example 37]: the negative logarithm of the IC50 (pIC50) in test [1] is 7.15; in test [2] it was 6.92. Further, the pEC50 in test [3] is 8.45.

In the case of `[2H]C([2H])([2H])NC(=O)c1cnc(NC(=O)C2CC2)cc1Nc1cccc(-c2ccnn2CC)c1OC` [Example 38], the pIC50 in test [1] is 5.78; in test [2], 5.82. For the same compound, the pEC50 in test [3] is 6.80.

For `[2H]C([2H])([2H])NC(=O)c1cnc(NC(=O)C2CC2)cc1Nc1cccc(-c2ccn(CC(F)(F)F)n2)c1OC` [Example 39], the IC50 in test [1] was 0.16 µM; in test [2], 0.08 µM. The pEC50 in test [3] was 7.70.

On to `[2H]C([2H])([2H])NC(=O)c1cnc(NC(=O)C2CC2)cc1Nc1cccc(-c2ccn(CC(C)(C)O)n2)c1OC` [Example 40], for which the pIC50 in test [1] is 6.80; in test [2], 6.77. In test [3], the pEC50 was 8.41.

For `[2H]C([2H])([2H])NC(=O)c1cnc(NC(=O)C2CC2)cc1Nc1cccc(-c2ccn(CCC#N)n2)c1OC` [Example 41], the IC50 in test [1] came out at 0.09 µM; in test [2] it was 0.19 µM. Moreover, the pEC50 in test [3] was 8.56.

Take `CNC(=O)c1cnc(NC(=O)C2CC2)cc1Nc1cccc(-c2cnn(C)c2)c1OC` [Example 42]: the pIC50 in test [1] is 7.70; in test [2] it was 7.30. In addition, the negative-log EC50 (pEC50) in test [3] was 8.14.

Turning to `[2H]C([2H])([2H])NC(=O)c1cnc(NC(=O)C2CC2)cc1Nc1cccc(-c2cnn(C)c2)c1OC` [Example 43], the pIC50 in test [1] is 7.70; in test [2], 7.22. For the same compound, the pEC50 in test [3] is 8.60.

For the compound `[2H]C([2H])([2H])NC(=O)c1cnc(NC(=O)C2CC2)cc1Nc1cccc(-c2csc(C)n2)c1OC` [Example 45], the pIC50 in test [1] and in test [2] was 8.00 throughout. Also, in test [3], the pEC50 was 8.25.
